Cc1cc(=O)oc2cc(N)ccc12
solubility (mole fraction)
Details	278.15 K	283.15 K	288.15 K	293.15 K	298.15 K	303.15 K	308.15 K	313.15 K	318.15 K	323.15 K
in DMF	0.0579	0.0725	0.0902	0.108	0.131	0.156	0.189	0.219	0.251	0.292
in ethanol	0.000941	0.00101	0.00117	0.00123	0.00134	0.00161	0.00177	0.00214	0.00233	0.00262
in ethylene glycol	0.000384	0.000432	0.000531	0.000663	0.000812	0.000974	0.00112	0.0013	0.00145	0.00163
in isopropanol	0.00103	0.00114	0.00127	0.00152	0.00173	0.00188	0.00208	0.00237	0.00261	0.00294
in water	1.07e-05	1.38e-05	1.74e-05	2.18e-05	2.75e-05	3.41e-05	4.18e-05	5.14e-05	6.27e-05	7.57e-05

From BigSolDB 2.1
